According to patent US20260001888A1, “PYRAZOLOPYRIMIDINE PDE9 INHIBITORS” (Merck Sharp & Dohme LLC, priority 2018, published 2026):

Biological target: Human PDE9 (PDE9A2) (Homo sapiens (Human), UniProt O76083)
Assay: PDE9 IMAP fluorescence polarization (FP) inhibition assay
Type: biochemical
Conditions: apparent inhibition constant; human PDE9A2, FAM-cGMP substrate 50 nM, room temperature
Method in brief: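 N-terminal GST-tagged full-length PDE9A2 membrane prep (0.5 ng/ml final) preincubated 30 min with compound at room temperature, then 50 nM FAM-cGMP added for 60 min; IMAP binding reagent stops reaction, FP read after 1 h. Controls: known PDE9 inhibitor (100%), 1% DMSO (0%). KI from four-parameter fit.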

Sequence of Human PDE9 (PDE9A2) (O76083 other isoform, or with tags, fused parts or gaps): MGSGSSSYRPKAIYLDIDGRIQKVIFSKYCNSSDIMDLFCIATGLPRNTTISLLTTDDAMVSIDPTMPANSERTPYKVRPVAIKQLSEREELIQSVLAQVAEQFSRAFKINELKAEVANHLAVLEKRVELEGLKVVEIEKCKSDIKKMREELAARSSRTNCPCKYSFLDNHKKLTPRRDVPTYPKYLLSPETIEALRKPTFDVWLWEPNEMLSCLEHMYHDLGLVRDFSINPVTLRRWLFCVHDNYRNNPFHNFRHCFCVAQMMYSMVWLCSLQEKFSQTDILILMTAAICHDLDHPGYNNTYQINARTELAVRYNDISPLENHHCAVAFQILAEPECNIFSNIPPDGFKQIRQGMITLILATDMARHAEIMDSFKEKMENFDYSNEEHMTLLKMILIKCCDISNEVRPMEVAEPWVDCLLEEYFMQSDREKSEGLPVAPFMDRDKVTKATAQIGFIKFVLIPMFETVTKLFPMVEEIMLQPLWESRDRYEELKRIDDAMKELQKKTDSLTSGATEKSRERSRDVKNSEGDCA

Work on CC(c1ccc(C(F)(F)F)nc1)n1nc(C#N)c2c(=O)[nH]c(N3CCC3c3ccc(F)cc3)nc21 (single isomer, unassigned) [Example 58, 6-[2-(4-fluorophenyl)azetidin-1-yl]-4-oxo-1-[1-[6-(trifluoromethyl)-3-pyridyl]ethyl]-5H-pyrazolo[3,4-d]pyrimidine-3-carbonitrile] yielded a Ki of 7.8 nM.

With CCC(c1ncc(F)cn1)N(C)c1nc2c(c(C#N)nn2C(C)c2ccc(C3CC3)nc2)c(=O)[nH]1 (single isomer, unassigned) [Example 63, 1-[1-(6-cyclopropyl-3-pyridyl)ethyl]-6-[1-(5-fluoropyrimidin-2-yl)propyl-methyl-amino]-4-oxo-5H-pyrazolo[3,4-d]pyrimidine-3-carbonitrile] the Ki was 14.7 nM.

With CCC(c1ncc(F)cn1)N(C)c1nc2c(c(C#N)nn2C(C)c2ccc(C3CC3)nc2)c(=O)[nH]1 (single isomer, unassigned) [Example 64, 1-[1-(6-cyclopropyl-3-pyridyl)ethyl]-6-[1-(5-fluoropyrimidin-2-yl)propyl-methyl-amino]-4-oxo-5H-pyrazolo[3,4-d]pyrimidine-3-carbonitrile] the Ki was 11.9 nM.

CCC(c1ncc(F)cn1)N(C)c1nc2c(c(C#N)nn2C(C)c2ccc(C3CC3)nc2)c(=O)[nH]1 (single isomer, unassigned) [Example 65, 1-[1-(6-cyclopropyl-3-pyridyl)ethyl]-6-[1-(5-fluoropyrimidin-2-yl)propyl-methyl-amino]-4-oxo-5H-pyrazolo[3,4-d]pyrimidine-3-carbonitrile] was tested, and the Ki was 0.03 nM.

Work on CCC(c1ncc(F)cn1)N(C)c1nc2c(c(C#N)nn2C(C)c2ccc(C3CC3)nc2)c(=O)[nH]1 (single isomer, unassigned) [Example 66, 1-[1-(6-cyclopropyl-3-pyridyl)ethyl]-6-[1-(5-fluoropyrimidin-2-yl)propyl-methyl-amino]-4-oxo-5H-pyrazolo[3,4-d]pyrimidine-3-carbonitrile] yielded a Ki of 0.6 nM.

CCC(c1ncc(F)cn1)N(C)c1nc2c(c(C#N)nn2C(C)c2ccc(C3CC3)cc2)c(=O)[nH]1 (single isomer, unassigned) [Example 67, 1-[1-(4-cyclopropylphenyl)ethyl]-6-[1-(5-fluoropyrimidin-2-yl)propyl-methyl-amino]-4-oxo-5H-pyrazolo[3,4-d]pyrimidine-3-carbonitrile] was tested, and the Ki was 0.71 nM.

For CCC(c1ncc(F)cn1)N(C)c1nc2c(c(C#N)nn2C(C)c2ccc(C3CC3)cc2)c(=O)[nH]1 (single isomer, unassigned) [Example 68, 1-[1-(4-cyclopropylphenyl)ethyl]-6-[1-(5-fluoropyrimidin-2-yl)propyl-methyl-amino]-4-oxo-5H-pyrazolo[3,4-d]pyrimidine-3-carbonitrile], the Ki was 0.73 nM.

Compound CCC(c1ncc(F)cn1)N(C)c1nc2c(c(C#N)nn2C(C)c2ccc(C3CC3)cc2)c(=O)[nH]1 (single isomer, unassigned) [Example 69, 1-[1-(4-cyclopropylphenyl)ethyl]-6-[1-(5-fluoropyrimidin-2-yl)propyl-methyl-amino]-4-oxo-5H-pyrazolo[3,4-d]pyrimidine-3-carbonitrile] has a Ki of 14.9 nM.

Compound CCC(c1ncc(F)cn1)N(C)c1nc2c(c(C#N)nn2C(C)c2ccc(C3CC3)cc2)c(=O)[nH]1 (single isomer, unassigned) [Example 70, 1-[1-(4-cyclopropylphenyl)ethyl]-6-[1-(5-fluoropyrimidin-2-yl)propyl-methyl-amino]-4-oxo-5H-pyrazolo[3,4-d]pyrimidine-3-carbonitrile] has a Ki of 0.02 nM.

In the case of CCC(Nc1nc2c(c(C#N)nn2C(C)c2ccc(C(F)(F)F)nc2)c(=O)[nH]1)c1ncccn1 (single isomer, unassigned) [Example 71, 4-Oxo-6-((1-(pyrimidin-2-yl)propyl)amino)-1-(1-(6-(trifluoromethyl)pyridin-3-yl)ethyl)-4,5-dihydro-1H-pyrazolo[3,4-d]pyrimidine-3-carbonitrile], the Ki is reported as 11.9 nM.
